Values joined by “and” are separate entries in the source; they are usually repeats but may differ in a detail not shown here. Identical values can stand only once. “Also recorded” adds a separate entry of the source.
Columns and labels:
[1] = tested on: human umbilical vein endothelial cells (HUVEC); test: Measurement of vWF release after reperfusion (ELISA of cell supernatant); type: cell-based
Description: (§1) All the examples were carried out with human umbilical vein endothelial cells (HUVEC). These comprise primary cell cultures isolated from the umbilical vein.
(§2) For the following examples, the cells were cultivated either on gelatinized glass plates (measurement of the intracellular proton concentration) or on cell culture plates (12-well culture plates, Falcon, N.J., USA; measurement of vWF release) after the first passage.
The measurements were carried out in a Heraeus Heracell incubator. This made it possible to […] the umbilical vein endothelial cells under controlled physiological conditions (temperature 37° C., relative humidity 100%, pCO2 constant at 5%), and to ensure rapid change of different cell culture media.
Said cells were initially incubated with acidotic medium (pH 6.4 composed of the ingredients: medium M199 w/Earle's & amino acids, w/L-glutamine, w/o NaHCO3, w/o Hepes+0.084 g NaHCO3/1) or pH standard medium (pH 7.4 composed of the ingredients: medium M199 w/Earle's & amino acids, w/L-glutamine, w/o NaHCO3, w/o Hepes+2.200 g NaHCO3/1), for one, three or 48 hours. Before starting the reperfusion, samples of supernatant were taken to determine the vWF concentration under acidotic conditions (vWFacidosis) and control conditions (vWFco). To simulate reperfusion, the medium was changed to one with a pH of 7.4 (ingredients: medium M199 w/Earle's & amino acids, w/L-glutamine, w/o NaHCO3, w/o Hepes+2.200 g NaHCO3/1+10 μM histamine) to which the NHE inhibitor cariporide was added in a concentration of 10 μM. Change to the same medium without corresponding addition of inhibitor served as control.
The samples taken from the supernatant were used to determine the vWF concentration. This was done by an ELISA method (enzyme-linked immuno sorbent assay) using specific antibodies. The vWF content of standard human plasma (Behring, Marburg) is calculated using an international standard (2nd International Standard 87/718, National Institute for Biological Standards and Control, London).

[2] = tested on: human umbilical vein endothelial cells (HUVEC); test: Measurement of the intracellular pH (pHi) during reperfusion simulation after acidosis, BCECF fluorescence; type: cell-based
Description: as §1, §2
To measure the intracellular proton concentration (pHi), the HUVECs were loaded with the pH-sensitive fluorescent dye, BCECF-AM (2′,7′-bis(carboxyethyl)-5(6)-carboxyfluorescein). A Deltascan spectrofluorometer (PTI, Hamburg) was employed for the subsequent fluorescence measurement. This measuring system consists essentially of a UV light source, a monochromator, a photon detector and the Felix and Oscar software packages (PTI, Hamburg) for controlling the system via a computer. After alternate excitation with the wavelengths 439.5 nm (pH-independent) and 490 nm (pH-sensitive), the ratio of the measured emissions of the BCECF (ratio) was reported and the pH was found after a calibration. The measuring cell is designed so that the parameters of temperature and carbon dioxide partial pressure in the system are controlled during continuous perfusion. For the reperfusion simulation, the experimental conditions were set at 37° C. and a carbon dioxide partial pressure of 5% or 10% by gassing the system and perfusate.
In the experiment, there was initially preincubation with sodium bicarbonate buffer pHex 6.4 for 60 minutes in order to simulate […] metabolic acidosis. The initiation perfusion was then changed to sodium bicarbonate buffer of pH 7.4 with 10 μM histamine as reperfusion simulation. These control experiments were compared with an experiment in which the NHE inhibitor cariporide was added in a concentration of 10 μM to the reperfusion buffer.

SMILES: CC(C)c1ccc(C(=O)N=C(N)N)cc1S(C)(=O)=O [cariporide]
- Effect on vWF secretion of healthy, non-acidotic control cells (in words) ([1]; control cells incubated with cariporide (10 μM)): no increase or decrease in vWF secretion; also recorded: showed no effect
- vWF secretion relative to control cells (vWFco = 100%), control cells incubated with cariporide (vWFco+HOE) ([1]; non-acidotic control cells, 10 μM cariporide, 10-minute reperfusion time with stimulation): 106 ± 3.0%
- vWF concentration during reperfusion of preacidotic cells in the presence of cariporide (vWFHOE), relative to control (vWFco = 100%) ([1]; preacidotic cells (pH 6.4), 10 μM cariporide, 10-minute reperfusion time with stimulation, without cariporide 193 ± 8.0%): 139 ± 16%
- Reduction of the increased vWF secretion during reperfusion ([1]; preacidotic cells, 10 μM cariporide): ~60%
- Rate of pH increase, Mean ± SEM ([2]; 10 μM cariporide in reperfusion buffer pH 7.4 with 10 μM histamine, after 60 minutes of acidosis (pHex 6.4), first 30 seconds after reperfusion): 0.27 ± 0.02 Δ pH / min
- Rate of pH increase, individual experiments ([2]; 10 μM cariporide in reperfusion buffer pH 7.4 with 10 μM histamine, after 60 minutes of acidosis (pHex 6.4), first 30 seconds after reperfusion, listed as HOE): 0.30 Δ pH / min and 0.24 Δ pH / min (2×) and 0.23 Δ pH / min and 0.34 Δ pH / min
- Reduction in the rate of increase in intracellular pH compared with the control (factor) ([2]; extracellular pH changed from 6.4 to 7.4, 10 μM cariporide): 3.6
